Laboratory results reported in the NIST ThermoML archive (doi:10.1021/je0503296).
Numbers after ± are expanded uncertainties.

Settings: Liquid, Vibrating object- edge clamped plate

Question: With `CCCCCCCC` [octane] as the compound, how does the mass density (323.15 K, 100 kPa) read?
Answer: 676 ± 1.4 kg/m3

Question: What about the viscosity (323.15 K, 100 kPa) of the same compound?
Answer: 0.3892 ± 0.0095 mPa·s

Question: What about the mass density (323.15 K, 10096 kPa) of the same compound?
Answer: 687.7 ± 1.4 kg/m3

Question: And the viscosity (323.15 K, 10096 kPa)?
Answer: 0.44 ± 0.011 mPa·s

Question: What about the mass density (323.15 K, 20701 kPa) of the same compound?
Answer: 698.1 ± 1.4 kg/m3

Question: And the viscosity (323.15 K, 20701 kPa)?
Answer: 0.495 ± 0.012 mPa·s

Question: What about the mass density (323.15 K, 30654 kPa) of the same compound?
Answer: 706.7 ± 1.4 kg/m3

Question: And the viscosity (323.15 K, 30654 kPa)?
Answer: 0.53 ± 0.013 mPa·s

Question: And the mass density (323.15 K, 41050 kPa)?
Answer: 714.6 ± 1.4 kg/m3

Question: What about the viscosity (323.15 K, 41050 kPa) of the same compound?
Answer: 0.576 ± 0.014 mPa·s

Question: And the mass density (323.15 K, 54543 kPa)?
Answer: 723.9 ± 1.4 kg/m3

Question: What about the viscosity (323.15 K, 54543 kPa) of the same compound?
Answer: 0.633 ± 0.016 mPa·s

Question: What about the mass density (323.15 K, 68036 kPa) of the same compound?
Answer: 732.2 ± 1.5 kg/m3

Question: And the viscosity (323.15 K, 68036 kPa)?
Answer: 0.693 ± 0.017 mPa·s

Question: And the mass density (348.14 K, 100 kPa)?
Answer: 654.3 ± 1.3 kg/m3

Question: What about the viscosity (348.14 K, 100 kPa) of the same compound?
Answer: 0.3011 ± 0.0081 mPa·s

Question: And the mass density (348.14 K, 7551 kPa)?
Answer: 664.7 ± 1.3 kg/m3

Question: And the viscosity (348.14 K, 7551 kPa)?
Answer: 0.3338 ± 0.0087 mPa·s

Question: And the mass density (348.14 K, 13680 kPa)?
Answer: 672.2 ± 1.3 kg/m3

Question: And the viscosity (348.14 K, 13680 kPa)?
Answer: 0.3513 ± 0.0088 mPa·s

Question: What about the mass density (348.14 K, 20500 kPa) of the same compound?
Answer: 679.4 ± 1.4 kg/m3

Question: What about the viscosity (348.14 K, 20500 kPa) of the same compound?
Answer: 0.378 ± 0.01 mPa·s

Question: And the mass density (348.14 K, 27466 kPa)?
Answer: 686.1 ± 1.4 kg/m3

Question: What about the viscosity (348.14 K, 27466 kPa) of the same compound?
Answer: 0.4008 ± 0.0099 mPa·s

Question: What about the mass density (348.14 K, 27469 kPa) of the same compound?
Answer: 686.1 ± 1.4 kg/m3

Question: What about the viscosity (348.14 K, 27469 kPa) of the same compound?
Answer: 0.4 ± 0.01 mPa·s

Question: And the mass density (348.14 K, 34305 kPa)?
Answer: 692.1 ± 1.4 kg/m3

Question: And the viscosity (348.14 K, 34305 kPa)?
Answer: 0.424 ± 0.01 mPa·s

Question: What about the mass density (348.14 K, 34314 kPa) of the same compound?
Answer: 690.8 ± 1.4 kg/m3

Question: And the viscosity (348.14 K, 34314 kPa)?
Answer: 0.424 ± 0.01 mPa·s

Question: And the mass density (348.14 K, 41226 kPa)?
Answer: 697.9 ± 1.4 kg/m3

Question: What about the viscosity (348.14 K, 41226 kPa) of the same compound?
Answer: 0.449 ± 0.011 mPa·s

Question: What about the mass density (348.14 K, 41227 kPa) of the same compound?
Answer: 697.8 ± 1.4 kg/m3

Question: What about the viscosity (348.14 K, 41227 kPa) of the same compound?
Answer: 0.449 ± 0.011 mPa·s

Question: And the mass density (348.14 K, 48070 kPa)?
Answer: 703.1 ± 1.4 kg/m3

Question: And the viscosity (348.14 K, 48070 kPa)?
Answer: 0.471 ± 0.012 mPa·s

Question: What about the mass density (348.14 K, 55000 kPa) of the same compound?
Answer: 708.2 ± 1.4 kg/m3

Question: What about the viscosity (348.14 K, 55000 kPa) of the same compound?
Answer: 0.498 ± 0.012 mPa·s

Question: What about the mass density (348.14 K, 55004 kPa) of the same compound?
Answer: 708.1 ± 1.4 kg/m3

Question: What about the viscosity (348.14 K, 55004 kPa) of the same compound?
Answer: 0.499 ± 0.012 mPa·s

Question: And the mass density (348.14 K, 61992 kPa)?
Answer: 714.2 ± 1.4 kg/m3

Question: What about the viscosity (348.14 K, 61992 kPa) of the same compound?
Answer: 0.522 ± 0.015 mPa·s

Question: What about the mass density (348.14 K, 61994 kPa) of the same compound?
Answer: 712.8 ± 1.4 kg/m3

Question: And the viscosity (348.14 K, 61994 kPa)?
Answer: 0.533 ± 0.015 mPa·s

Question: What about the mass density (373.12 K, 6723 kPa) of the same compound?
Answer: 644.7 ± 1.3 kg/m3

Question: And the viscosity (373.12 K, 6723 kPa)?
Answer: 0.2757 ± 0.0067 mPa·s

Question: What about the mass density (373.12 K, 6724 kPa) of the same compound?
Answer: 644.6 ± 1.3 kg/m3

Question: What about the viscosity (373.12 K, 6724 kPa) of the same compound?
Answer: 0.2758 ± 0.0067 mPa·s

Question: And the mass density (373.12 K, 20592 kPa)?
Answer: 662.9 ± 1.3 kg/m3

Question: And the viscosity (373.12 K, 20592 kPa)?
Answer: 0.3205 ± 0.008 mPa·s

Question: What about the mass density (373.12 K, 20599 kPa) of the same compound?
Answer: 662.9 ± 1.3 kg/m3

Question: What about the viscosity (373.12 K, 20599 kPa) of the same compound?
Answer: 0.3217 ± 0.0079 mPa·s

Question: And the mass density (373.12 K, 27397 kPa)?
Answer: 670.3 ± 1.3 kg/m3

Question: And the viscosity (373.12 K, 27397 kPa)?
Answer: 0.3429 ± 0.009 mPa·s

Question: And the mass density (373.12 K, 27402 kPa)?
Answer: 670.4 ± 1.3 kg/m3

Question: And the viscosity (373.12 K, 27402 kPa)?
Answer: 0.3429 ± 0.0089 mPa·s

Question: And the mass density (373.12 K, 34317 kPa)?
Answer: 677.1 ± 1.4 kg/m3

Question: And the viscosity (373.12 K, 34317 kPa)?
Answer: 0.3646 ± 0.0089 mPa·s

Question: And the mass density (373.12 K, 34324 kPa)?
Answer: 677.2 ± 1.4 kg/m3

Question: And the viscosity (373.12 K, 34324 kPa)?
Answer: 0.3649 ± 0.0089 mPa·s

Question: What about the mass density (373.12 K, 41184 kPa) of the same compound?
Answer: 683.5 ± 1.4 kg/m3

Question: What about the viscosity (373.12 K, 41184 kPa) of the same compound?
Answer: 0.381 ± 0.01 mPa·s

Question: And the mass density (373.12 K, 41207 kPa)?
Answer: 683.6 ± 1.4 kg/m3

Question: And the viscosity (373.12 K, 41207 kPa)?
Answer: 0.38 ± 0.01 mPa·s

Question: And the mass density (373.12 K, 41221 kPa)?
Answer: 683.6 ± 1.4 kg/m3

Question: What about the viscosity (373.12 K, 41221 kPa) of the same compound?
Answer: 0.384 ± 0.01 mPa·s

Question: What about the mass density (373.12 K, 48024 kPa) of the same compound?
Answer: 689.2 ± 1.4 kg/m3

Question: And the viscosity (373.12 K, 48024 kPa)?
Answer: 0.409 ± 0.01 mPa·s

Question: What about the mass density (373.12 K, 48032 kPa) of the same compound?
Answer: 689.1 ± 1.4 kg/m3

Question: And the viscosity (373.12 K, 48032 kPa)?
Answer: 0.409 ± 0.01 mPa·s

Question: What about the mass density (373.12 K, 54853 kPa) of the same compound?
Answer: 694.6 ± 1.4 kg/m3

Question: And the viscosity (373.12 K, 54853 kPa)?
Answer: 0.433 ± 0.011 mPa·s

Question: And the mass density (373.12 K, 54866 kPa)?
Answer: 694.6 ± 1.4 kg/m3

Question: What about the viscosity (373.12 K, 54866 kPa) of the same compound?
Answer: 0.432 ± 0.011 mPa·s

Question: What about the mass density (373.12 K, 61686 kPa) of the same compound?
Answer: 699.8 ± 1.4 kg/m3

Question: What about the viscosity (373.12 K, 61686 kPa) of the same compound?
Answer: 0.447 ± 0.011 mPa·s

Question: And the mass density (373.12 K, 61704 kPa)?
Answer: 699.8 ± 1.4 kg/m3

Question: And the viscosity (373.12 K, 61704 kPa)?
Answer: 0.449 ± 0.011 mPa·s

Question: And the mass density (423.09 K, 14725 kPa)?
Answer: 620.5 ± 1.3 kg/m3

Question: And the viscosity (423.09 K, 14725 kPa)?
Answer: 0.229 ± 0.013 mPa·s

Question: And the mass density (423.09 K, 27159 kPa)?
Answer: 638.8 ± 1.3 kg/m3

Question: What about the viscosity (423.09 K, 27159 kPa) of the same compound?
Answer: 0.252 ± 0.016 mPa·s

Question: And the mass density (423.09 K, 40831 kPa)?
Answer: 655.5 ± 1.4 kg/m3

Question: And the viscosity (423.09 K, 40831 kPa)?
Answer: 0.287 ± 0.019 mPa·s

Question: And the mass density (423.09 K, 54591 kPa)?
Answer: 668.8 ± 1.4 kg/m3

Question: And the viscosity (423.09 K, 54591 kPa)?
Answer: 0.344 ± 0.021 mPa·s

Question: What about the mass density (423.09 K, 68420 kPa) of the same compound?
Answer: 676.4 ± 1.5 kg/m3

Question: What about the viscosity (423.09 K, 68420 kPa) of the same compound?
Answer: 0.352 ± 0.029 mPa·s

Question: What does the source list for `Cc1ccccc1` [toluene]?
Answer: mass density (323.15 K, 100 kPa): 837 ± 1.7 kg/m3; viscosity (323.15 K, 100 kPa): 0.421 ± 0.01 mPa·s; mass density (323.15 K, 13940 kPa): 850.7 ± 1.7 kg/m3; viscosity (323.15 K, 13940 kPa): 0.482 ± 0.012 mPa·s; mass density (323.15 K, 27338 kPa): 861.7 ± 1.7 kg/m3; viscosity (323.15 K, 27338 kPa): 0.524 ± 0.013 mPa·s; mass density (323.15 K, 41055 kPa): 871.5 ± 1.7 kg/m3; viscosity (323.15 K, 41055 kPa): 0.571 ± 0.014 mPa·s; mass density (323.15 K, 54593 kPa): 880.1 ± 1.8 kg/m3; viscosity (323.15 K, 54593 kPa): 0.615 ± 0.015 mPa·s; mass density (323.15 K, 68135 kPa): 888.1 ± 1.8 kg/m3; viscosity (323.15 K, 68135 kPa): 0.66 ± 0.016 mPa·s; mass density (373.11 K, 13270 kPa): 807.3 ± 1.6 kg/m3; viscosity (373.11 K, 13270 kPa): 0.2924 ± 0.0071 mPa·s; mass density (373.11 K, 26975 kPa): 822.5 ± 1.6 kg/m3; viscosity (373.11 K, 26975 kPa): 0.3398 ± 0.0088 mPa·s; mass density (373.11 K, 40789 kPa): 834.2 ± 1.7 kg/m3; viscosity (373.11 K, 40789 kPa): 0.3691 ± 0.0092 mPa·s; mass density (373.11 K, 54631 kPa): 845 ± 1.7 kg/m3; viscosity (373.11 K, 54631 kPa): 0.419 ± 0.011 mPa·s; mass density (373.11 K, 68196 kPa): 853.4 ± 1.7 kg/m3; viscosity (373.11 K, 68196 kPa): 0.436 ± 0.011 mPa·s
